Results reported in ChEMBL document CHEMBL5365532, “Discovery of Triazinone Derivatives as Novel, Specific, and Direct NLRP3 Inflammasome Inhibitors for the Treatment of DSS-Induced Ulcerative Colitis” (J Med Chem, 2023).
The source made the active and inactive calls. The rule behind the calls is not given here.

What was measured:
THP-1 [1] = test: Effect on NLRP3 protein expression in PMA-differentiated human THP-1 cells at 0.5 uM pretreated with compound for 40 mins followed by LPS challenge for 3 hrs by western blot analysis; assay type: functional, cell-based; conditions: time 220.0 min
THP-1 [2] = test: Effect on pro-IL-1beta protein expression in PMA-differentiated human THP-1 cells at 0.5 uM pretreated with compound for 40 mins followed by LPS challenge for 3 hrs by western blot analysis; assay type: functional, cell-based; conditions: time 220.0 min
[3] = Metabolic stability in human liver microsomes; assay type: ADME, Microsome
[4] = target: NACHT, LRR and PYD domains-containing protein 3 (Homo sapiens, UniProt Q96P20); test: Inhibition of NLRP3 inflammasome in PMA-differentiated human THP-1 cells assessed as inhibition of LPS/nigericin-induced IL-1 beta secretion pretreated with LPS for 3 hrs followed by incubation with compound for 40 mins and later stimulated with nigericin for 35 mins by ELISA; assay type: cell-based
Mus musculus [5] = test: Antiinflammatory activity against DSS-induced ulcerative colitis C57BL/6 mouse model assessed as decrease in disease activity index at 30 mg/kg, ip fed with DSS for 6 days followed by administration with compound for 5 days; assay type: functional, organism-based; conditions: time 5.0 day
Mus musculus [6] = test: Antiinflammatory activity against DSS-induced ulcerative colitis C57BL/6 mouse model assessed as decrease in colon length shortening at 30 mg/kg, ip fed with DSS for 6 days followed by administration with compound for 5 days and measured on day 11; assay type: functional, organism-based; conditions: time 5.0 day

NACHT, LRR and PYD domains-containing protein 3, sequence (Q96P20 whole entry, the tested form may be a part): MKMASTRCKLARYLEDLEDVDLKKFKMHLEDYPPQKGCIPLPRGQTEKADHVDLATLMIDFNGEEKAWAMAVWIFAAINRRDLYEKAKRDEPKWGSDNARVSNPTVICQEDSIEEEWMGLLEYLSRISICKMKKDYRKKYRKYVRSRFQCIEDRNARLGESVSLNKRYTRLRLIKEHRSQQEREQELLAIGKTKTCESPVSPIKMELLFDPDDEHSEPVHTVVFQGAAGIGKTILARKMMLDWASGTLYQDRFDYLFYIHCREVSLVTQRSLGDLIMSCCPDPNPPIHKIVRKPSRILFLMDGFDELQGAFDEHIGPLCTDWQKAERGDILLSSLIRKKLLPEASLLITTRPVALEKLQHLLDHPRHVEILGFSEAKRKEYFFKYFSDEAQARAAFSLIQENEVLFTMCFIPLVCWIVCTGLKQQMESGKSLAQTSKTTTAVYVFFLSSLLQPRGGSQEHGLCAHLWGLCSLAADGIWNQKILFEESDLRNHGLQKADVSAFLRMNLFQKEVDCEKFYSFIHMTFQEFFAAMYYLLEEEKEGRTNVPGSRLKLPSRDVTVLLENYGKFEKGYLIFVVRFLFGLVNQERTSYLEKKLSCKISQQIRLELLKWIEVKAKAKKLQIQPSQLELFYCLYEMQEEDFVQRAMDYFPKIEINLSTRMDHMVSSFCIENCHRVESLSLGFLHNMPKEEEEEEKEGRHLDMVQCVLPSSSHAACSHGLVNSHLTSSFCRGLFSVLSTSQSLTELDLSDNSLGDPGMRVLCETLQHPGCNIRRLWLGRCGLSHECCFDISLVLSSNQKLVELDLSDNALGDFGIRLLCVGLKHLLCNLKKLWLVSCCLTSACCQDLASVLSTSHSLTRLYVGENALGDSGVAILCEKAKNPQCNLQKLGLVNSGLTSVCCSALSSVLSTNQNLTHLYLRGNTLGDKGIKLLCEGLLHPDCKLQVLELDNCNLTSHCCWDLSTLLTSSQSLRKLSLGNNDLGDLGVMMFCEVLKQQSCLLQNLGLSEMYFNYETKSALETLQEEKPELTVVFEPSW

SMILES	IC50 [4] [µM]	also measured
CC(C)(O)c1coc(S(=O)(=O)NC(=O)Nc2c3c(cc4c2CCC4)CCC3)c1	–	Activity (THP-1 [1]): inactive; Activity (THP-1 [2]): inactive
CC(C)c1nn(Cc2nnc(-c3ccc(F)nc3F)o2)c(=O)c2cc3sc(Cl)cc3n12	–	half-life [3]: 8.86 min
[2H]C([2H])(c1nnc(-c2ccc(C(F)(F)F)nc2Cl)o1)n1nc(C(C)C)n2c(cc3sc(Cl)cc32)c1=O	–	half-life [3]: 25.1 min
Cc1ccc(-c2nnc(Cn3nc(C(C)C)n4c(cc5sc(Cl)cc54)c3=O)o2)c(Cl)n1	–	half-life [3]: 15.2 min
CC(C)c1nn(Cc2nnc(-c3cccnc3)o2)c(=O)c2cc3sc(Cl)cc3n12	1.89	–
CC(C)c1nn(Cc2nnc(C3CCOCC3)o2)c(=O)c2cc3sccc3n12	> 10	–
CC(C)c1nn(Cc2nnc(C3CCOCC3)o2)c(=O)c2cc3sc(Cl)cc3n12	2.41	–
CC(C)c1nn(Cc2nnc(-c3cc(F)cnc3Cl)o2)c(=O)c2cc3sc(Cl)cc3n12	–	half-life [3]: 7.66 min
COc1cccc(-c2nnc(Cn3nc(C(C)C)n4c(cc5sc(Cl)cc54)c3=O)o2)c1	> 10	–
CC(C)c1nn(CC(=O)NC2CCOCC2)c(=O)c2cc(NC3COC3)cn12	> 10	–
CC(C)c1nn(CC(=O)NC2CCOCC2)c(=O)c2cc(Nc3ccccc3)cn12	> 10	–
CC(C)c1nn(CC(=O)NC2CCOCC2)c(=O)c2cc3sc(Cl)cc3n12	–	Activity (Mus musculus [5]): Active; half-life [3]: 18.7 min; Activity (Mus musculus [6]): Active
CC(C)c1nn(Cc2nnc(-c3cccc(C#N)c3)o2)c(=O)c2cc3sc(Cl)cc3n12	0.38	–
CC(C)c1nn([C@H](C)c2nnc(-c3ccc(C(F)(F)F)nc3Cl)o2)c(=O)c2cc3sc(Cl)cc3n12	> 10	half-life [3]: 59.2 min
CC(C)c1nn(CC(=O)NC2CCOCC2)c(=O)c2ccc(-c3ccsc3)n12	> 10	–
CC(C)c1nn(Cc2nnc(-c3cccnc3)[nH]2)c(=O)c2cc3sc(Cl)cc3n12	> 10	–

More lines, main results first:

IC50 [4] [µM]	SMILES	also measured
1.24	CC(C)c1nn(Cc2nnc(-c3ccncn3)o2)c(=O)c2cc3sc(Cl)cc3n12	–
> 10	CC(C)c1nn(CC(=O)NC2CCOCC2)c(=O)c2cccn12	–
1.9	CC(C)c1nn(Cc2nnc(C3CCCCC3)o2)c(=O)c2cc3sc(Cl)cc3n12	–
> 10	CC(C)c1nn(CC(=O)NC2CCOCC2)c(=O)c2cc3ccccc3n12	–
> 10	Cc1cccc(-c2nnc(Cn3nc(C(C)C)n4c(cc5sc(Cl)cc54)c3=O)o2)c1	–
> 10	O=C(CNC(=O)c1cc2sccc2[nH]1)NC1CCOCC1	–
> 10	CC(C)c1nn(CC(=O)NC2CCOCC2)c(=O)c2ccc(-c3ccc(Cl)s3)n12	–
2.24	CC(C)c1nn(Cc2nnc(-c3cnccn3)o2)c(=O)c2cc3sc(Cl)cc3n12	–
> 10	O=C(CN1CCn2c(cc3sccc32)C1=O)NC1CCOCC1	–
> 10	CC(C)c1nn([C@@H](C)c2nnc(-c3ccc(C(F)(F)F)nc3Cl)o2)c(=O)c2cc3sc(Cl)cc3n12	–
> 10	CC(C)c1nn(CC(=O)NC2CCOCC2)c(=O)c2cc3cc(Cl)ccc3n12	–
1.77	CC(C)c1nn(Cc2nnc(-c3cc(C(F)(F)F)cnc3Cl)o2)c(=O)c2cc3sc(Cl)cc3n12	–
